Series [1] deals with P. falciparum. The experiment in a line: In vitro activity against erythrocytic stage of P. falciparum ([3H]-hypoxanthine incorporation). Type of series: cell-based, chloroquine-sensitive (3D7w) clone of P. falciparum. Conditions: read-out: IC50 (µM) Erythrocytic stage P. falciparum. As to the method: After 48 hours, [^3H]-hypoxanthine (Amersham) was added to each well and then plates were incubated for 24 hours. Parasites were harvested, and incorporation of radioactivity was determined by liquid scintillation counting (Beckman LS1701, les Ulis, France). The counts-per-minute (cpm) was adjusted relative to controls to obtain percentages of inhibition. […] This estimation was obtained with IC50 estimator software. For the assay, the parasites were synchronized by D-sorbitol treatment.

Another series can be described thus: in vitro. Conditions: human, TC50 (µM) Hepatic stage (rodent) P. yoelii, 50% toxic concentration, MTT assay. Here is the method:
(§1) A preliminary screening was performed consisting in the infection of human CD81 transfected hepatocarcinome cell line HepG2 (HepG2/CD81) with P. yoelii. IC50 (inhibiting concentration 50), TC50 (toxic concentration 50) and TI (therapeutic index, ratio TC50/IC50) were estimated for each drug tested. Selected molecules (small IC50, high TC50 and high TI) were analyzed in human hepatocytes. Briefly, HepG2 cells were plated in 96-well plates for 24 h prior to inoculation with 1x10^4 of P. yoelii sporozoites. Sporozoites-inoculated culture plates were centrifuged for 5 min at 1,500 rpm at 4°C in order to enhance the infection rate as described by Gruner (Gruner et al., 2005). After 3h at 37°C, the cultures were washed and further incubated in fresh medium for 48 h (P. yoelii) before quantification of infected cells in triplicate wells.
(§2) Toxicity was determined by using the colorimetric 3-(4,5-dimethylthiazol-2-yl)-2,5-diphenyltetrazolium bromide (MTT) assay (Mosman., 1983). Briefly, HepG2 cells cultures were prepared in 96-well plates as described above. Drugs were tested in triplicate wells at eight concentrations ranging from 6.4 × 10^-3 µM to 200 µM. One hundred microliters of 0.5 mg/ml MTT (5 mg/ml MTT in water diluted 10x in William's medium without fetal bovine serum) was added to each well, and the plates were incubated for 4 h (37°C, 5% CO2). The medium was discarded, and the cells were resuspended in ethanol and dimethyl sulfoxide (50/50, vol/vol). The plates were read in an enzyme-linked immunosorbent assay plate reader (550-nm absorbance wavelength and 620-nm reference wavelength). The results were expressed as the percent change in viability compared to drug-free control cultures. […] Each drug and concentration was tested at least in triplicate. The selectivity index (SI) was defined as the ratio of the TC50 to the IC50.
A general note: Tetrazolium dyes change colour on reduction, which living cells bring about.

For a further series, the system named is P. yoelii. The experiment in a line: In vitro activity against hepatic stage of P. yoelii (sporozoite-infected HepG2/CD81 cells or rodent hepatocytes, liver-schizont count). Type of series: cell-based, P. yoelii (265 BY strain). The following applies: rodent parasite P. yoelii, cultures arrested at 48 h. Here is the method: (§3) Activity against pre-erythrocytic stages was tested by in vitro assays with the human parasite P. falciparum (NF54 strain) and the rodent parasite P. yoelii (265 BY strain). The rodent parasite P. yoelii is produced in the insectarium of the INSERM Unit U511 and human parasite P. falciparum was obtained from collaboration with R. Sauerwein.
(§4) Sporozoites were obtained from infected salivary glands of Anopheles stephensi mosquitoes fed on continuous culture of P. falciparum (coll R. Sauerwein, Netherlands), or on P. yoelii parasitized mice (insectarium of the INSERM Unit U511). After aseptic dissection, salivary glands were homogenized in a glass grinder and diluted in culture medium or sterile phosphate-buffered saline (PBS).
(§5) Primary cultures of rodent or human hepatocytes were prepared from liver segments taken from mouse or from adult patients undergoing partial hepatectomy. Hepatocytes were isolated using the two-step enzymatic perfusion technique (Guguen-Guillouzo et al., 1982) and were further purified on a discontinuous Percoll gradient. Then, hepatocytes were seeded in eight-chamber Lab-Tek permanox slides at a density of 1,4x10^5 cells per cm^2, and maintained under culture conditions as described in Mahmoudi et al., 2003. After complete adherence to culture plates, rodent and human hepatocytes were infected with P. yoelii or P. falciparum sporozoites, respectively, aseptically dissected from mosquitoes' salivary glands, as described above. Hepatocytes were inoculated with 6x10^4 sporozoites per Lab-Tek well. Compounds to be tested were added at the time of infection and/or after penetration of the sporozoites and at different concentrations (three wells per dilution). Every day, medium was replaced by fresh medium containing or not different concentrations of the molecules to be tested. Cultures were arrested at 48 hours (P. yoelii) or 6 days (P. falciparum) and cells were fixed with methanol. Liver-schizonts were quantified by microscopic examination after fluorescent labeling using a primary mouse antibody directed against Plasmodium heat shock protein-70 (Renia et al., 1990) produced in INSERM unit 511 and a secondary goat anti-mouse antibody conjugated with fluorescein isothiocyanate (Sigma Aldrich).

A short description of series [2]: MTT toxicity assay reported with the erythrocytic stage (TC50), cells not named. Type of series: cell-based. The following applies: 50% toxic concentration, read-out: TC50 (µM) Erythrocytic stage P. falciparum. An excerpt: The selectivity index (SI) was defined as the ratio of the TC50 to the IC50.
A further series relates to HepG2 cells. Description: in vitro. The following applies: read-out: TC50 (µM) Hepatic stage (rodent) P. yoelii; 50% toxic concentration, MTT assay. Here is the method: as §1, §2
The subject of series [3] is P. falciparum. Description: In vitro activity against hepatic stage of P. falciparum in primary human hepatocytes (liver-schizont count). It counts as cell-based, P. falciparum (NF54 strain). Conditions: cultures arrested at 6 days. Here is the method: as §3, §4
as §5, with “Every day, medium was replaced by fresh medium containing or not different concentrations of the molecules to be tested. Cultures were arrested at 48 hours (P. yoelii) or 6 days (P. falciparum) and cells were fixed with methanol.” left out

The nature of series [4]: MTT toxicity assay on human hepatocytes (TC50). As to the method:
Cytotoxic effect of the compounds was evaluated on human hepatocytes, obtained as described above. The colorimetric MTT assay was used (Mosman., 1983). Briefly, hepatocyte cultures were prepared in 96-well plates as described above. Drugs were tested in triplicate wells at eight concentrations ranging from 6.4 x 10^-3 µM to 200 µM. One hundred microliters of 0.5 mg/ml MTT (5 mg/ml MTT in water diluted 10x in William's medium without fetal bovine serum) was added to each well, and the plates were incubated for 4 h (37°C, 5% CO2). The medium was discarded, and the cells were resuspended in ethanol and dimethyl sulfoxide (50/50, vol/vol). The plates were read in an enzyme-linked immunosorbent assay plate reader (550-nm absorbance wavelength and 620-nm reference wavelength). The results were expressed as the percent change in viability compared to drug-free control cultures. […] Each drug and concentration was tested at least in triplicate. The selectivity index (SI) was defined as the ratio of the TC50 to the IC50.

Setting [5] is: Plasmodium falciparum, Erythrocyte, 72 h, ring stage parasitized erythrocytes, 3D7w clone, 48 h + 24 h with [3H]-hypoxanthine.
[6] abbreviates: Plasmodium yoelii, Hepatocyte, 48 h.
Setting [7] is: ring stage parasitized erythrocytes, 3D7w clone, 48 h + 24 h with [3H]-hypoxanthine.

For orientation: IC50 means the midpoint of a concentration-inhibition curve.

The structures appear in SMILES notation. Bounds are passed on as bounds.

For the molecule `CCN(CC)CCCC(C)Nc1ccnc2cc(Cl)ccc12` (centres unmarked) [Chloroquine, reference compound], the IC50 in the series on P. falciparum [1] (Plasmodium falciparum, Erythrocyte, 72 h) came to 0.04 µM.

The molecule `COc1cc(NC(C)CCCN)c2ncccc2c1` (centres unmarked) [Primaquine, reference compound] displayed a CC50 in “in vitro” of 12.6 µM.

With `COc1cccc(OC)c1OC(C)C(O)c1ccc2c(c1)OC(F)(F)O2` (centres unmarked) [drawing 70], the IC50 with P. falciparum [1] (setting [5]) is over 40 µM; in the series with P. yoelii (setting [6]), 20.1 µM. Also, the CC50 in “in vitro” worked out at 54.9 µM; in series [2], 55 µM.

For `COc1cccc(OC)c1OC(C)C(O)c1ccc2c(c1)OC(F)(F)O2` (centres unmarked) [drawing 71], the IC50 with P. falciparum [1] (setting [7]) is over 40 µM; with P. yoelii, 20.2 µM. The CC50 in series [2] amounted to 53 µM.

Consider `COc1cc(C)cc(OC)c1OC(C)C(O)c1ccc2c(c1)OC(F)(F)O2` (centres unmarked) [drawing 72], for which the results for the IC50 in the series with P. falciparum [1] (setting [5]) and in the series with P. yoelii were 13.6 µM and 19 µM, respectively. The CC50 is 56.8 µM in the series “in vitro” and 57 µM in series [2].

Turning to `COc1cc(C)cc(OC)c1OC(C)C(O)c1ccc2c(c1)OC(F)(F)O2` (centres unmarked) [drawing 73], the IC50 in the series on P. falciparum [1] (setting [7]) worked out at 13.5 µM; in the series with P. yoelii, 5.62 µM. Besides, the CC50 (with HepG2 cells; in series [2]) was 53.7 µM in each case.

For `COc1cc(C(O)C(C)Oc2c(OC)cccc2OC)cc(OC)c1OC` (centres unmarked) [drawing 74], the IC50 was over 40 µM with P. falciparum [1] (setting [5]) and 28.6 µM with P. yoelii. In addition, the values for the CC50 (in the series with HepG2 cells; in series [2]) were 57.9 µM and 58 µM, respectively.

Consider `COc1cc(C(O)C(C)Oc2c(OC)cccc2OC)cc(OC)c1OC` (centres unmarked) [drawing 75], for which the CC50 in the series on HepG2 cells is 0.126 µM. The same molecule had an IC50 in the series with P. yoelii of 2.52 µM.

For the molecule `COc1cc(C(O)C(C)Oc2c(OC)cc(C)cc2OC)cc(OC)c1OC` (centres unmarked) [drawing 76], the 50% inhibitory concentration (IC50) is over 40 µM in the series with P. falciparum [1] (setting [5]) and 50.1 µM in the series on P. yoelii. In addition, the CC50 (in “in vitro”; in series [2]) was 47 µM each time.

On to `COc1cc(C(O)C(C)Oc2c(OC)cc(C)cc2OC)cc(OC)c1OC` (centres unmarked) [drawing 77], for which the IC50 is over 40 µM in the series with P. falciparum [1] (setting [7]); 0.38 µM with P. falciparum [3] (Plasmodium falciparum, Hepatocyte, 144 h); 0.0045 ± 0.005 µM with P. yoelii. Also, the CC50 in the series with HepG2 cells is 49.5 µM; in series [4], 125 µM; in series [2] it was 49.5 µM.

With `COc1cc(C(O)C(C)Oc2c(OC)cc(-c3ccccc3)cc2OC)cc(OC)c1OC` (centres unmarked) [drawing 78], the IC50 in the series on P. falciparum [1] (setting [5]) came to 11.5 µM; in the series on P. falciparum [3], 0.02 µM; in the series on P. yoelii (setting [6]), 3.54 ± 4.9 µM. For the same molecule, the CC50 in “in vitro” was over 50 µM; in series [4], 50 µM; in series [2], 50 µM.

Regarding `COc1cc(C(O)C(C)Oc2c(OC)cc(-c3ccccc3)cc2OC)cc(OC)c1OC` (centres unmarked) [drawing 79], the results for the IC50 in the series with P. falciparum [1] (setting [7]), in the series on P. falciparum [3] and with P. yoelii were 20 µM, 0.007 µM and 3.61 ± 4 µM, respectively. The values for the CC50 (in the series on HepG2 cells; in series [2]) were over 50 µM and 50 µM, respectively.
